The text below walks through data of patent US11439624B2, “Promoting sleep using AT1 receptor blockers” (UNIVERSITY OF PITTSBURGH—OF THE COMMONWEALTH SYSTEM OF …, priority 2012, dated 2022).

For data set [1], the system named is rats in the stress-induced insomnia model. In words: stress-induced insomnia model in rats (cage exchange; EEG and EMG recording). It is filed as in vivo, rat. Conditions: for average of REM sleep / average of nREM sleep / average of wakefulness along the entire experiment: aprox. 6 hours after cage exchange and drug injection; for average of REM sleep: vehicle 2%; for average of nREM sleep: vehicle 45%; for average of wakefulness along the entire experiment: vehicle 52%; for REM sleep (range depending on the hour): vehicle 0-4%; for sleep latency: stressed (cage exchanged) rats, i.p. just prior to transfer to soiled cage, candesartan 1 or 5 mg/kg, azilsartan 0.5 mg/kg, vehicle 68±10 minutes; for abnormal wave components in the EEG (power spectrum analysis): treated rats in the insomnia model. How it is done: Rats in the stress-induced insomnia model (25) were treated with candesartan intraperitoneally (i.p.; 1 mg/kg or 5 mg/kg). In the model, insomnia is induced by transferring male rats at the peak of their normal sleep cycle into a soiled cage previously occupied during one week by another male rat. This simple procedure induces a psychological or social stress response in the rats, which are very territorial animals. The sequence of sleep disturbances in cage exchanged rats is similar to that observed in humans with primary insomnia. In rats, there is an initial delay in sleep onset and increased wakefulness that resemble the difficulties falling asleep at the beginning of the night, or initial insomnia, observed in humans after a stressful day. Eventually, insomniacs fall asleep because of the sleep pressure, as rats do. But later, as the night progresses, they usually experience insomnia characterized by decreased nREM sleep, frequent awakenings, and poor quality sleep, similar to what we observed in the stressed rats. Candesartan was injected i.p. just prior to transferring the rats (n=7 for the 1 mg/kg treatment and n=4 for the 5 mg/kg treatment) to the soiled cage. EEG and EMG activity were recorded continuously to determine the behavioral state (wake, nREM or REM sleep) along several hours. Control rats (n=6) were injected with vehicle and also placed in a soiled cage and recorded. […] REM sleep is increased to 6-12% (depending on the hour) compared with vehicle treated rats (0-4%). In an additional study, Azilsartan was tested using the same stress-induced insomnia model in rats as was used in Example 1. Azilsartan, which mainly acts as an inverse agonist of AT1 receptors, has been reported to have a potent effect in the treatment of hypertension at a single daily dose compared to twice-a-day doses commonly used for other AT1 receptor blockers. For this reason, we used a lower dose of azilsartan (0.5 mg/kg) than the dose used for candesartan. Azilsartan was injected i.p. just prior to transferring the rats (n=4) to the soiled cage. EEG and EMG activity were recorded continuously to determine the behavioral state (wake, nREM or REM sleep) along several hours, as explained above.

Data set [2] relates to humans treated for hypertension. Conditions: cited from earlier work.
Where [3] appears, read: candesartan 1 or 5 mg/kg i.p., azilsartan 0.5 mg/kg i.p.

For `CCOc1nc2cccc(C(=O)O)c2n1Cc1ccc(-c2ccccc2-c2nnn[nH]2)cc1` [candesartan], in data set [1], the “average of REM sleep” value was 7.5%, the “average of nREM sleep” value is listed as 57%, the “average of wakefulness along the entire experiment” value was 35% and the sleep latency was 38 ± 3 min. In data set [1], the “abnormal wave components in the EEG (power spectrum analysis)” value was “does not induce abnormal wave components in the EEG”. Also, in data set [1] (candesartan 1 or 5 mg/kg i.p.), the “nREM sleep increase compared with vehicle treated rats (depending on the hour)” value is 20-40%. Moreover, the “REM sleep (range depending on the hour)” value in data set [1] (setting [3]) was 6-12%.
For the compound `CCOc1nc2cccc(C(=O)O)c2n1Cc1ccc(-c2ccccc2-c2noc(=O)[nH]2)cc1` [azilsartan], the “duration of effect compared with other AT1 receptor blockers” value in data set [2] is listed as “longer-lasting effect than other AT1 receptor blockers”. Also, in data set [1] (4 hours after injection of the drug, azilsartan 0.5 mg/kg i.p.), the “more sleep in the last two hours of the experiment compared to candesartan-treated rats” value came out at 20%. Moreover, in data set [1], the “average of REM sleep” value amounted to 10%, the “average of nREM sleep” value was determined as 68%, the “average of wakefulness along the entire experiment” value is 22% and the sleep latency amounted to 60 ± 3 min. The “abnormal wave components in the EEG (power spectrum analysis)” value in data set [1] is given as “does not seem to induce abnormal wave components in the EEG”. In data set [1] (azilsartan 0.5 mg/kg i.p.), the “percentage of nREM sleep (range depending on the hour)” value is listed as 50-82%. Also, in data set [1] (setting [3]), the “REM sleep (range depending on the hour)” value is recorded as 3-15%. Also, the “effect on sleep disturbances induced by stress” value in data set [1] (validated rat model of stress-induced insomnia) is on record as “ameliorate sleep disturbances induced by stress”.
